Results taken from article PMC11436673 (Journal of Experimental Pharmacology, 2024).
pIC50: −log10 of the molar value.

Target: T1, human monoacylglycerol lipase (MGL) (Homo sapiens, UniProt Q99685)
T1 sequence (Q99685 1-303): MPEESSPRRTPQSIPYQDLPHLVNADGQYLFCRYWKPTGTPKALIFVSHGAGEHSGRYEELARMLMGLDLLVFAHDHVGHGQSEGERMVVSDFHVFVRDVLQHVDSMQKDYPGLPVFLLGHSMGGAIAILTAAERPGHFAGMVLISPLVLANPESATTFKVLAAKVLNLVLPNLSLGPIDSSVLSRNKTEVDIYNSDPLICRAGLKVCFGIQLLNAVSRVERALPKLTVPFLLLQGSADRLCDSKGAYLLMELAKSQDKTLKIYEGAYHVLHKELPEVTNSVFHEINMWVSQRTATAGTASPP
Format: biochemical

Work on CC[C@H](CC[C@@H](C)[C@H]1CC[C@H]2[C@@H]3CC=C4C[C@@H](O)CC[C@]4(C)[C@H]3CC[C@]12C)C(C)C [beta-sitosterol] yielded a pIC50 of 4.71.
